The record followed here is ChEMBL document CHEMBL1132050, “Synthesis of novel analogues of the delta opioid ligand SNC-80 using AlCl3-promoted aminolysis” (Bioorg Med Chem Lett, 1999).

Assay [1] concerns the target Kappa-type opioid receptor (Cavia porcellus, UniProt P41144). Kind of assay: Binding affinity towards Opioid receptor kappa 1 using [3H]- U-69,593 (1.5 nM) as radioligand in guinea pig brain membranes. The assay is classed as cell membranes, Membrane.
In assay [2] the test system is Mus musculus. Put plainly: Antinociceptive activity against acetic acid induced abdominal constriction model in mice by sc administration. Format: functional. Conditions: Abdomen.
In assay [3] the target is T1, Delta-type opioid receptor (Homo sapiens, UniProt P41143). Put plainly: Inhibition of binding of [3H]- -naltrindole (0.15 nM) to membranes from CHO cells expressing Opioid receptor delta 1. The assay is classed as cell membranes.
T1 sequence (P41143 whole entry): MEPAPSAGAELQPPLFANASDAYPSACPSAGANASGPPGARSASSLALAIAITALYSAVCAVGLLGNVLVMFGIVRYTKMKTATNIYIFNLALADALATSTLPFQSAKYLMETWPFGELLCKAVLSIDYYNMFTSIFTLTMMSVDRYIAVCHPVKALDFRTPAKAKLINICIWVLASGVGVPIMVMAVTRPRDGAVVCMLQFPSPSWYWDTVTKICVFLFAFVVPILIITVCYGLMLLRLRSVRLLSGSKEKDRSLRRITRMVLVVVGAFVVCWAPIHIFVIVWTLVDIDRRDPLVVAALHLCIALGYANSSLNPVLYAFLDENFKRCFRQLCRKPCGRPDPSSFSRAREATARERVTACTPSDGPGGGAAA
The subject of assay [4] is Mus musculus. Put plainly: Potency in the Mouse vas deferens (MVD) functional assay was determined […].
For assay [5], the system named is Cricetinae gen. sp. Put plainly: Maximum efficacy in the Hamster vas deferens (HVD) functional assay was determined […] at a compound concentration of 10E-10 to 10E-5.
For assay [6], the system named is Mus musculus. Put plainly: Maximum efficacy in Mouse vas deferens (MVD) functional assay was determined […] at a compound concentration of 10E-10 to 10E-5.
Assay [7] concerns Cricetinae gen. sp. Put plainly: Potency in the Hamster vas deferens (HVD) functional assay was determined […].
Assay [8] addresses Mu-type opioid receptor (Rattus norvegicus, UniProt P33535). Kind of assay: Binding affinity towards mu opioid receptor using [3H]- -DAMGO (1.5 nM) as radioligand in rat brain membranes. The assay is classed as cell membranes.
The target of assay [9] is T1, Delta-type opioid receptor. Kind of assay: Compound was tested for inhibition of binding of [3H]- -naltrindole (0.15 nM) to membranes from CHO cells expressing human delta opioid receptor. The assay is classed as cell membranes.

Where only a bound is given, the exact number is not on record here.

Sequence of Kappa-type opioid receptor (P41144 whole entry): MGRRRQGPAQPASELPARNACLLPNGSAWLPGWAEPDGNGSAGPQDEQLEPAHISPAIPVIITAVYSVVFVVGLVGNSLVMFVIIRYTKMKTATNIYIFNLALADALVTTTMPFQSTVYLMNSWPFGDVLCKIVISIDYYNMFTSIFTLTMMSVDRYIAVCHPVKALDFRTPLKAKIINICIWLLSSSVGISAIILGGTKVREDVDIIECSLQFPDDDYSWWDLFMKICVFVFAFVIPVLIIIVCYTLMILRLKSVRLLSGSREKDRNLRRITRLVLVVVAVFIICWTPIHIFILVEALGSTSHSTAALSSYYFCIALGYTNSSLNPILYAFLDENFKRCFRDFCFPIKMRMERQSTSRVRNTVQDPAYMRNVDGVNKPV
Sequence of Mu-type opioid receptor (P33535 whole entry): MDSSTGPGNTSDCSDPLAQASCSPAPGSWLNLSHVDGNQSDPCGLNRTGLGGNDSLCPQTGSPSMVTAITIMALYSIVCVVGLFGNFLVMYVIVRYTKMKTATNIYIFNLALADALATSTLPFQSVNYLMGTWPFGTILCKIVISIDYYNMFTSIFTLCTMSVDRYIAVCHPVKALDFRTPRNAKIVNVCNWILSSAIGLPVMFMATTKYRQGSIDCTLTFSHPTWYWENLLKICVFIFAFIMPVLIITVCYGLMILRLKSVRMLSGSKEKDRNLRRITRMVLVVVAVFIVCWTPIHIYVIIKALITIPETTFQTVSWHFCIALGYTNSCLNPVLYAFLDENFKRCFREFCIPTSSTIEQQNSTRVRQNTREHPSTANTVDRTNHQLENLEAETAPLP

The term IC50 denotes the point on the concentration scale where inhibition reaches its midpoint. In general, ED50 refers to the midpoint of the dose-response relation. High values mean a need for a large dose, low ones an effect at a small dose. For `CCN(CC)C(=O)c1ccc(C(c2ccccc2)N2CCN(Cc3ccc4c(c3)OCO4)CC2)cc1` (centres undefined), the IC50 is 3900 nM in [1]; 1.4 nM in assay [3]; 100 nM in assay [4]; 2510 nM in [7]; above 10000 nM in [8]. Further, the ED50 in assay [2] was above 200 µmol/kg. In addition, the Efficacy worked out at 52% in assay [5] and 98% in [6].
With `CCN(CC)C(=O)c1ccc(C(c2ccccc2)N2CCN(CC3CCc4ccccc4C3)CC2)cc1` (centres undefined), the IC50 came out at 1.8 nM in assay [3] and 6240 nM in assay [8].
In assay [3], `CCN(CC)C(=O)c1ccc(C(c2ccccc2)N2CC(C)NC(C)C2)cc1` (centres undefined) yielded an IC50 of 42 nM.
On the same count and under the same terms, under `CCN(CC)C(=O)c1ccc(C(c2ccccc2)N2CCNC3CCCCC32)cc1` (centres undefined) stands 29 nM.
Consider `CCN(CC)C(=O)c1ccc(C(c2ccccc2)N2CCN(CCO)CC2)cc1` (centres undefined), for which the results for the IC50 in [3] and in assay [8] were 5.5 nM and above 10000 nM, respectively.
For `CCCN1CCN(C(c2ccccc2)c2ccc(C(=O)N(CC)CC)cc2)CC1` (centres undefined), in that order: 11.4 nM and above 10000 nM.
In turn, `C=CCN1CCCN(C(c2ccccc2)c2ccc(C(=O)N(CC)CC)cc2)CC1` (centres undefined) registered a 50% inhibitory concentration (IC50) in assay [9] of 13 nM.
In the case of `CCN(CC)C(=O)c1ccc(C(NCC(C)(C)N)c2ccccc2)cc1` (centres undefined), the IC50 in assay [3] is 120 nM.
Same read-out and setting: in the case of `CCN(CC)C(=O)c1ccc(C(c2ccccc2)N2CCN(C3CCCC3)CC2)cc1` (centres undefined) it was 5.8 nM; in that of `CCN(CC)C(=O)c1ccc(C(c2ccccc2)N(CC)CCN(C)C)cc1` (centres undefined), 845 nM.
On to `CCN(CC)C(=O)c1ccc(C(c2ccccc2)N(CCN(C)C)Cc2ccccc2)cc1` (centres undefined), for which the IC50 in assay [1] was 483 nM; in assay [3] it was 70 nM; in [4], above 10000 nM; in assay [7], above 10000 nM; in assay [8], above 10000 nM. In addition, the 50% effective dose (ED50) in assay [2] was found to be 48.4 µmol/kg. In addition, the Efficacy in assay [5] is reported as 13%; in assay [6], 7%.
In turn, `CCN(CC)C(=O)c1ccc([C@H](c2ccccc2)N2C[C@@H](C)N(Cc3ccc4c(c3)OCO4)C[C@@H]2C)cc1` showed an ED50 in assay [2] above 200 µmol/kg. Besides, the half-maximal inhibitory concentration (IC50) is 0.54 nM in assay [3], 39.8 nM in assay [4], 1260 nM in assay [7] and 702 nM in assay [8]. The Efficacy in assay [5] is reported as 68%; in assay [6], 100%.
As to `CCN(CC)C(=O)c1ccc(C(c2ccccc2)N2CCN(c3ccc(O)cc3)CC2)cc1` (centres undefined), the concentration for half-maximal inhibition (IC50) in assay [3] was 10 nM; in [8], above 10000 nM.
In the case of `C=CCN1CCN(C(c2ccccc2)c2ccc(C(=O)N(CC)CC)cc2)CC1` (stereo in doubt; 2), the IC50 in [1] is 1990 nM; in assay [3], 4.1 nM; in assay [4] it was 631 nM; in assay [7], above 10000 nM; in assay [8] it was above 10000 nM. The compound further gave a 50% effective dose (ED50) in [2] of 145 µmol/kg. Further, the Efficacy in assay [5] was 4%; in assay [6], 87%.
Compound `C=CCN1CCN(C(c2ccccc2)c2ccc(C(=O)N(CC)CC)cc2)CC1` (stereo in doubt; 6 {1} (2)) returned an IC50 in assay [3] of 8 nM.
As to `C=CCN1CCN(C(c2ccccc2)c2ccc(C(=O)N(CC)CC)cc2)CC1` (stereo in doubt; 7 {1} (2)), the IC50 is 8 nM in [3] and above 50000 nM in assay [8].
As for `C=CCN1C[C@H](C)N([C@H](c2ccc(C(=O)N(CC)CC)cc2)c2cccc(OC)c2)C[C@H]1C` [SNC-80], the concentration for half-maximal inhibition (IC50) was 4100 nM in assay [1], 7.94 nM in assay [4] and 50.1 nM in assay [7]. The compound further displayed a median effective dose (ED50) in assay [2] of 30.4 µmol/kg. Besides, the Efficacy is listed as 90% in assay [5] and 100% in assay [6].
